Measured values: patent publication US5424451A, “Process for preparing aminoalkylcarbamic esters of eseroline” (priority 1992, dated 1995)
Like-named read-outs stand apart in the source and are kept apart here.

Assays:
acetylcholinesterase = conditions: cited from earlier work
patients = conditions: prior art, cited from earlier work; for Clinical effects in patients (in words): mental diseases / Alzheimer's disease
[1] = prior art; cited from earlier work
in vivo = conditions: rat, po
[2] = target: T1, acetylcholinesterase from electric eel (Electrophorus electricus, UniProt O42275); experiment: biochemical
T1 construct: purchased Sigma Chemical; host or cells: electric eel

[3] = target: T2, acetylcholinesterase from human red blood cells (Homo sapiens, UniProt P22303); experiment: Inhibition of acetylcholinesterase from human erythrocyte (Ellman colorimetric method); format: biochemical; conditions: for Activity against human red blood cells acetylcholinesterase (in words): Table 2 results
T2 construct: purchased Sigma Chemical; host or cells: human erythrocyte

[4] = target: T3, acetylcholinesterase from homogenate of in toto rat brain (Rattus norvegicus, UniProt P37136); experiment: Inhibition of acetylcholinesterase from rat brain homogenate; format: biochemical; conditions: contact time 10'; read-out: Cholinesterase Inhibition IC50, AChE rat brain
T3 construct: acetylcholinesterase from homogenate of in toto rat brain; from tissue; host or cells: rat whole brain homogenate
T3 sequence (P37136 32-614): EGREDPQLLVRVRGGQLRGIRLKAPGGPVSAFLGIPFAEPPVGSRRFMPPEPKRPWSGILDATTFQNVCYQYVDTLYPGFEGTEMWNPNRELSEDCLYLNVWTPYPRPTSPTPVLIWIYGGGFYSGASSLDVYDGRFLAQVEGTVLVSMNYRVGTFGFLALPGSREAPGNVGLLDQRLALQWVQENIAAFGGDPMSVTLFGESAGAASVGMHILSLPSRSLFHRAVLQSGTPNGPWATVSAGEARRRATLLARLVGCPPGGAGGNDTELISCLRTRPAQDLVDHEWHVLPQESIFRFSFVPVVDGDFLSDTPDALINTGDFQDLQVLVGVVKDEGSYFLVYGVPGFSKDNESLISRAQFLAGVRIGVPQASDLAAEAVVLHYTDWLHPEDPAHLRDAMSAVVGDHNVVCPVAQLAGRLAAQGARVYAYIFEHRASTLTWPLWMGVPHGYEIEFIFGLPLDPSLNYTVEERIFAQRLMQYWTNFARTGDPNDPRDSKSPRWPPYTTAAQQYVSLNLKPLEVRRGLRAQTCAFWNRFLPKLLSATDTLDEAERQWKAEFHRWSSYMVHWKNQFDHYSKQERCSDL
Text: The compounds prepared as per the Examples reported above and several other compounds under the present invention (Table 1) were pharmacologically tested with a view to determining their inhibitory effect on acetylcholinesterase and butyrylcholinesterase activity. The used method had been developed by Ellman et al. (Ellman, G. L., Courtney, K. D., Andres, V., Featherstone, R. M.: "A New and Rapid Colorimetric Determination of Acetylcholinesterase Activity", Biochem. Pharm. 7, 88, 1961).
AChE rat brain: acetylcholinesterase from homogenate of in toto rat brain
t: contact time (minutes)
IC50 M: median inhibitory molar concentration

[5] = target: T4, butyrylcholinesterase from human serum (Homo sapiens, UniProt P06276); experiment: Inhibition of butyrylcholinesterase from human serum (Ellman colorimetric method); format: biochemical
T4 construct: purchased Sigma Chemical; host or cells: human serum

[6] = cited from earlier work
[7] = Cholinesterase Inhibition IC50, AChE E.eel, contact time 10'
[8] = Cholinesterase Inhibition IC50, AChE hRBC, contact time 30'
[9] = contact time 10', read-out: Cholinesterase Inhibition IC50, AChE hRBC
[10] = Cholinesterase Inhibition IC50, AChE hRBC, contact time 60'
[11] = Cholinesterase Inhibition IC50, AChE hRBC, contact time 10'

T1 sequence (O42275 24-633): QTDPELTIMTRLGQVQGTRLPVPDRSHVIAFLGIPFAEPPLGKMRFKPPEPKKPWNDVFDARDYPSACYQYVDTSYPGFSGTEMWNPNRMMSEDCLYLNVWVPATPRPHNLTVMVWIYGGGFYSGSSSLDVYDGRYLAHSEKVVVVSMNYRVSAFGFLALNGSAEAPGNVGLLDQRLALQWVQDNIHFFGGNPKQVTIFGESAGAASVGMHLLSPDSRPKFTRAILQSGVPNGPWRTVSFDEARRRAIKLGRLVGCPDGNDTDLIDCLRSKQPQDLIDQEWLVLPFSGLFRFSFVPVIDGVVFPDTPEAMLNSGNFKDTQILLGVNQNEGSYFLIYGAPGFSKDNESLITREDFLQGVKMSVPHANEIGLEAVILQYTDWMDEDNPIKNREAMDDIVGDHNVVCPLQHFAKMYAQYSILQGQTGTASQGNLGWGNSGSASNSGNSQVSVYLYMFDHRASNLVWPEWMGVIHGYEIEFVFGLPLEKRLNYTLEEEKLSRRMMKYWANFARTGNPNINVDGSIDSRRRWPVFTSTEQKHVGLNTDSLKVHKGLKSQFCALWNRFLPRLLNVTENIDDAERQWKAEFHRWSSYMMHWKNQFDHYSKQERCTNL
T2 sequence (P22303 32-617 isoform P22303-2 limits assumed): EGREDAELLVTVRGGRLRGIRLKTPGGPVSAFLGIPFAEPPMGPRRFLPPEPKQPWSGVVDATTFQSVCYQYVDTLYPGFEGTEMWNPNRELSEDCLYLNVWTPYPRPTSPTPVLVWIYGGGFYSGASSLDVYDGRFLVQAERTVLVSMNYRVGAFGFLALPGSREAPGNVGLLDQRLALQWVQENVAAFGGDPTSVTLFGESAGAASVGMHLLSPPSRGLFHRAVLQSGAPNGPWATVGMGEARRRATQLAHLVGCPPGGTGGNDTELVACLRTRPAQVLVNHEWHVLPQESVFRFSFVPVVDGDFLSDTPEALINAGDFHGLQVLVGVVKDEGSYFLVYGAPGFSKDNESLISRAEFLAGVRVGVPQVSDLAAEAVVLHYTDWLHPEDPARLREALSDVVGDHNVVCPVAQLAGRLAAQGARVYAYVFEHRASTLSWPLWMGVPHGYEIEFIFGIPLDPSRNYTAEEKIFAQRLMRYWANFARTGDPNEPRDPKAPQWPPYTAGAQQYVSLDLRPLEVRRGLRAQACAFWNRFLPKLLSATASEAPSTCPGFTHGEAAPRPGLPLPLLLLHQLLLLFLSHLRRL
T4 sequence (P06276 29-602): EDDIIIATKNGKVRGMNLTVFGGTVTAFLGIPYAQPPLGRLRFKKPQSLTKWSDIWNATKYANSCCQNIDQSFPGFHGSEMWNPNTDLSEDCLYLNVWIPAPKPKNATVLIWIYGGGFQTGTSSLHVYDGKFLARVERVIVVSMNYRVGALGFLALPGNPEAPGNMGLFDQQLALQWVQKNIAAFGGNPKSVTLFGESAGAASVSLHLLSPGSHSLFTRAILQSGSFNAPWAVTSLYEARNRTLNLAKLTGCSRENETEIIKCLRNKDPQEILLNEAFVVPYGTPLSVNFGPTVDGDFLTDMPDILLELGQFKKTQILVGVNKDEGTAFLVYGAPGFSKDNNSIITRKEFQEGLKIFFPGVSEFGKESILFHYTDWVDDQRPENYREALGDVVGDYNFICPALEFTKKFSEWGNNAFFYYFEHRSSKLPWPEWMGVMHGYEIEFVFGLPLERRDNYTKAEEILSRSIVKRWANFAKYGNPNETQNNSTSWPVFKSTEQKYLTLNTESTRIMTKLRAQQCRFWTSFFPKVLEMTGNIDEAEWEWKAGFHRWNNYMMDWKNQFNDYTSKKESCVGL

| SMILES | Acetylcholinesterase inhibition, prior art (in words) (acetylcholinesterase) | LD50 (in vivo) [mg/kg] | IC50 [2, 7] [nM] | IC50 [3, 8] [nM] | IC50 [3, 9] [nM] | IC50 [4] [nM] | IC50 [5] [nM] | Activity against human red blood cells acetylcholinesterase (in words) [3] | also measured |
| --- | --- | --- | --- | --- | --- | --- | --- | --- | --- |
| CNC(=O)Oc1ccc2c(c1)[C@]1(C)CCN(C)[C@@H]1N2C [ESERINE, physostigmine] | potent natural inhibitor of acetylcholinesterase | 4.5 | – | – | – | – | – | – | Clinical effects in patients (in words) (patients): beneficial effects on patients affected by mental diseases; Pharmacokinetic properties (in words) [1]: unfavourable pharmacokinetic properties |
| CN1CC[C@@]2(C)c3cc(OC(=O)NCCCCCCN4CCOCC4)ccc3N(C)[C@@H]12 [MF 227, N-morpholinylhexylcarbamoyleseroline] | – | – | 12000 | 380 | 930 | 8200 | 100 | – | – |
| CN1CC[C@@]2(C)c3cc(OC(=O)NCCCCCCCCCCCCN4CCOCC4)ccc3N(C)[C@@H]12 [MF 228, N-morpholinyldodecylcarbamoyleseroline] | – | – | 70 | 60 | 70 | 380 | 100 | – | IC50 [3, 10]: 30 nM |
| CN1CC[C@@]2(C)c3cc(OC(=O)NCCCCCCCCN4CCOCC4)ccc3N(C)[C@@H]12 [MF 217, N-morpholinyloctylcarbamoyleseroline] | – | 23 | 330 | 76 | – | 880 | 170 | Particularly active | IC50 [3, 11]: 100 nM; IC50 [3, 10]: 63 nM |
| CN1CC[C@@]2(C)c3cc(OC(=O)NCCCCCN4CCOCC4)ccc3N(C)[C@@H]12 [MF 225, N-morpholinylpentylcarbamoyleseroline] | – | – | 330000 | 2200 | 7600 | 500000 | – | – | – |
| CN1CC[C@@]2(C)c3cc(OC(=O)NCCCCCCCN4CCOCC4)ccc3N(C)[C@@H]12 [MF 224, N-morpholinylheptylcarbamoyleseroline] | – | – | 1600 | 170 | 380 | 4100 | 300 | – | – |
| C[C@@H]1CN(CCCCCCCCNC(=O)Oc2ccc3c(c2)[C@]2(C)CCN(C)[C@@H]2N3C)C[C@H](C)O1 [MF 268, 8-(cis-2,6-dimethylmorpholinyl)octylcarbamoyl eseroline] | – | 56 | – | – | – | – | 180 | Particularly active | IC50 [3, 11]: 70 nM |
| CCCCCCCNC(=O)Oc1ccc2c(c1)[C@]1(C)CCN(C)[C@@H]1N2C [MF 201, heptylcarbamic ester of eseroline, reference compound] | less potent acetylcholinesterase inhibitor than physostigmine | – | – | – | – | – | 40 | – | IC50 ([2]; contact time 10', read-out: Cholinesterase Inhibition IC50, AChE E.eel): 550 nM; IC50 ([2]; contact time 30', read-out: Cholinesterase Inhibition IC50, AChE E.eel): 410 nM; IC50 ([2]; contact time 60', read-out: Cholinesterase Inhibition IC50, AChE E.eel): 440 nM; IC50 ([3]; read-out: Cholinesterase Inhibition IC50, AChE hRBC): 290 nM; Neutropenia in patients (in words) (patients; clinical pilot test, Alzheimer's disease): neutropenia phenomena in some, though very few, patients; Clinical effects in patients (in words) (patients): good results in a clinical pilot test on patients affected by Alzheimer's disease; Pharmacokinetic properties (in words) [1]: better pharmacokinetic properties; Side effects, prior art (in words) [6]: reduced side effects |
| CN1CC[C@@]2(C)c3cc(OC(=O)NCCCCCCCCCCN4CCOCC4)ccc3N(C)[C@@H]12 [MF 231] | – | 40 | 60 | – | 40 | – | – | Particularly active | – |
| CN1CC[C@@]2(C)c3cc(OC(=O)N4CCOCC4)ccc3N(C)[C@@H]12 [MF 215, reference compound] | low acetylcholinesterase activity depression | – | – | – | – | – | – | – | Activity compared with the compounds of this invention (in words) ([3]; compared with the compounds of this invention): much lower activity; IC50 ([3]; read-out: Cholinesterase Inhibition IC50, AChE hRBC, contact time 10'): 19000 nM; IC50 ([3]; read-out: Cholinesterase Inhibition IC50, AChE hRBC, contact time 30'): 12000 nM; IC50 ([3]; read-out: Cholinesterase Inhibition IC50, AChE hRBC, contact time 60'): 16000 nM; IC50 ([5]; read-out: Cholinesterase Inhibition IC50, BuChE hserum, contact time 10'): 870000 nM |
